Consider two molecules from ChEMBL document CHEMBL4190219, “Detection of a Toxic Methylated Derivative of Phomopsin A Produced by the Legume-Infesting Fungus Diaporthe toxica” (J Nat Prod, 2017).

Data set [1] is described as follows: Cytotoxicity against human HepG2 cells assessed as cell viability at 0.1 uM after 72 hrs by WST1 assay (reference value: 100%). In kind it is cell-based. Particulars: read-out: Activity.
The nature of data set [2]: Cytotoxicity against human HepG2 cells assessed as cell viability at 0.4 uM after 72 hrs by WST1 assay (reference value: 100%). In kind it is cell-based. To be noted: read-out: Activity.
Data set [3] can be described thus: Cytotoxicity against human HepG2 cells assessed as cell viability at 1.3 uM after 72 hrs by WST1 assay (reference value: 100%). In kind it is cell-based. Particulars: read-out: Activity.
Data set [4] is described as follows: Cytotoxicity against human HepG2 cells assessed as cell viability at 2.5 uM after 72 hrs by WST1 assay (reference value: 100%). In kind it is cell-based. To be noted: read-out: Activity.
A short description of data set [5]: Cytotoxicity against human HepG2 cells assessed as cell viability at 5.1 uM after 72 hrs by WST1 assay (reference value: 100%). In kind it is cell-based. To be noted: read-out: Activity.
The nature of data set [6]: Cytotoxicity against human HepG2 cells assessed as cell viability at 10.1 uM after 72 hrs by WST1 assay (reference value: 100%). To be noted: read-out: Activity. In kind it is cell-based.
Data set [7] has as its system HepG2. Briefly: Cytotoxicity against human HepG2 cells assessed as cell vitality at 0.1 uM after 72 hrs by trypan blue staining based assay (reference value: 1.1 +/- 0.5%). Particulars: hepg2, 72 h.
The test system of data set [8] is HepG2. Briefly: Cytotoxicity against human HepG2 cells assessed as cell vitality at 0.4 uM after 72 hrs by trypan blue staining based assay (reference value: 1.1 +/- 0.5%). To be noted: hepg2, 72 h.
In data set [9] the test system is HepG2. Briefly: Cytotoxicity against human HepG2 cells assessed as cell vitality at 1.3 uM after 72 hrs by trypan blue staining based assay (reference value: 1.1 +/- 0.5%). Particulars: hepg2, 72 h.
Data set [10] deals with HepG2. The experiment in a line: Cytotoxicity against human HepG2 cells assessed as cell vitality at 2.5 uM after 72 hrs by trypan blue staining based assay (reference value: 1.1 +/- 0.5%). Particulars: hepg2, 72 h.
The nature of data set [11]: Cytotoxicity against human HepG2 cells assessed as cell vitality at 5.1 uM after 72 hrs by trypan blue staining based assay (reference value: 1.1 +/- 0.5%). To be noted: read-out: Activity.
Data set [12] can be described thus: Cytotoxicity against human HepG2 cells assessed as cell vitality at 10.1 uM after 72 hrs by trypan blue staining based assay (reference value: 1.1 +/- 0.5%). To be noted: read-out: Activity.
Data set [13] has as its system HepG2. The experiment in a line: Cytotoxicity against human HepG2 cells assessed as cell viability after 72 hrs by WST1 assay. In kind it is cell-based. To be noted: for IC50: Homo sapiens, HepG2, 72 h; for Activity: human, hepg2, 72 h.
The test system of data set [14] is HepG2. The experiment in a line: Cytotoxicity against human HepG2 cells assessed as cell vitality after 72 hrs by trypan blue staining based assay. To be noted: hepg2, 72 h.

Molecules are shown by their SMILES.

For `C=C(C)[C@@H]1NC(=O)[C@H](N(C)C)[C@H](O)c2cc(Cl)c(O)c(c2)O[C@](C)(CC)[C@@H](C(=O)N2CC=C[C@H]2C(=O)N/C(C(=O)N/C(=C/C(=O)O)C(=O)O)=C(\C)CC)NC1=O`, the viability at 72 h, 0.1 µM in data set [1] worked out at 105%. Further, the viability at 72 h, 0.4 µM in data set [2] was 101%. Besides, in data set [3], the viability at 72 h, 1.3 µM was found to be 85%. Further, the viability at 72 h, 2.5 µM in data set [4] was found to be 61%. The viability at 72 h, 5.1 µM in data set [5] came out at 46%; in data set [11], 18.4%. Also, the viability at 72 h, 10.1 µM in [6] was 37%; in [12], 29.8%. Also, the Activity is 0.9% in data set [7]; 0.9% in data set [8]; 4.7% in data set [9]; 7.7% in [10]; “Dose-dependent effect” in data set [13]; “Dose-dependent effect” in data set [14]. Besides, in [13], the IC50 was determined as 6.1 µM.

In the case of `C=C(C)[C@@H]1NC(=O)[C@H](NC)[C@H](O)c2cc(Cl)c(O)c(c2)O[C@](C)(CC)[C@@H](C(=O)N2CC=C[C@H]2C(=O)N/C(C(=O)N/C(=C/C(=O)O)C(=O)O)=C(\C)CC)NC1=O`, the viability at 72 h, 0.1 µM in [1] stood at 106%. In data set [2], the viability at 72 h, 0.4 µM came out at 105%. The viability at 72 h, 1.3 µM in data set [3] amounted to 99%. Also, in [4], the viability at 72 h, 2.5 µM turned out to be 83%. The results for the viability at 72 h, 5.1 µM in [5] and in [11] were 57% and 9%, respectively. Further, the viability at 72 h, 10.1 µM in data set [6] came to 48%; in data set [12], 17%. The Activity in data set [7] is given as 0.5%; in [8] it was 1.1%; in data set [9] it was 1.6%; in data set [10] it was 4.3%; in data set [13] it was “Dose-dependent effect”; in data set [14], “Dose-dependent effect”. The IC50 in [13] came out at 8.1 µM.
